Test results: US3950513A, “Process of stabilizing therapeutically useful plasmin solutions” (Novo Terapeutisk Laboratorium A/S, priority 1969, dated 1976)
“Also recorded” adds a separate entry of the source. Where two headings read alike, the source gives them in different places. Each block holds one molecule with its values, some of them ahead of it. Where a SMILES comes first, the peptide text is derived from it.

Tests used:
[1] = molecular target: T1, plasmin originating from swine blood (Sus scrofa, UniProt P06867); assay: Stabilizing effect of amino acids on plasmin solution, residual plasmin activity (casein) on storage; type: biochemical; conditions: 35.5°C, employed concentration 0.25 millimole per plasmin unit
T1 construct: from tissue; host or cells: swine blood
T1 sequence (P06867 97-579 limits assumed): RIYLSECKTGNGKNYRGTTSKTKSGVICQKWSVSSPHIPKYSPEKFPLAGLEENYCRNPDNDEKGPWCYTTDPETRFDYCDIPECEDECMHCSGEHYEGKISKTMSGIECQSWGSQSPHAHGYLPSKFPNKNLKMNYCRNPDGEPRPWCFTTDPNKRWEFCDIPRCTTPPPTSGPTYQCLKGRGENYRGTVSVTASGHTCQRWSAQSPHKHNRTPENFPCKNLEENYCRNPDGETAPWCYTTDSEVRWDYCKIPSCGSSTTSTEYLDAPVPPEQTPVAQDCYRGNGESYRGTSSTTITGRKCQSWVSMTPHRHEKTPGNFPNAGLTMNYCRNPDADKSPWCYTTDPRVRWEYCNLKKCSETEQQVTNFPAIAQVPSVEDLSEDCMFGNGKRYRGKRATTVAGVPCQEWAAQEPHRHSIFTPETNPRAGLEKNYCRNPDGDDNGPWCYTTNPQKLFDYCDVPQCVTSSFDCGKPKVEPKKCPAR
T1 sequence (P06867 580-809 limits assumed): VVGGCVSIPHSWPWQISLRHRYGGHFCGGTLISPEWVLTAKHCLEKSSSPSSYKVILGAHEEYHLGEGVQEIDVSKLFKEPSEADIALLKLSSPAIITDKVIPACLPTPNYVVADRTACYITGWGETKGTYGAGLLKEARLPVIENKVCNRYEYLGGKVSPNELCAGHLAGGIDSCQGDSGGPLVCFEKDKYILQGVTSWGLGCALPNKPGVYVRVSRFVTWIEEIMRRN
Description: (§1) Usually the activity of plasmin solutions is expressed in the number of plasmin units per milliliter. However, no definition of a plasmin unit has until now been internationally adopted. Here and in the following one plasmin unit means the amount of plasmin causing in 20 minutes the formation of decomposition products being soluble in perchloric acid and having an extinction of 1 unit at 275 mμ under the following experimental conditions:
(§2) By the addition of the perchloric acid a precipitation takes place, and the two test tubes now stand for 20 minutes whereafter filtration two times through filtering paper (J. H. Munktells unrivalled Genuine Swedish Filtering Paper No. 0.9 cm) is carried out. The extinction of the two solutions is thereafter measured at 275 mμ in a Beckman D U Spectrophotometer (1 cm quartz cuvette), the value of the sample having stood for 2 minutes being used as blind value.
If not, a saturated amino acid solution is employed.

plasmin [2] = molecular target: T2, plasmin (Sus scrofa, UniProt P06867); type: biochemical, swine; conditions: for % activity after 120 min. at 25°C / % activity after 60 min. at 25°C: 0.3 plasmin units per ml
T2 sequence (P06867 97-579 limits assumed): as the sequence (P06867 97-579 limits assumed) above
T2 sequence (P06867 580-809 limits assumed): as the sequence (P06867 580-809 limits assumed) above
Description: as §1
as §2, with “1 […] THE PLASMIN SOLUTION THE ACTIVITY OF WHICH IS TO BE […] THE PH of which is 7.5 is added to two test tubes each containing in 0.4 molar phosphate buffer (pH 7.50) 1 […] a 3 per cent's solution of Hammarsten Casein said solution having been preheated to 35.5°C. […] By” for “By”
The stabilizing effect of a long series of amino acids has been examined in connection with plasmin originating from swine blood and dissolved in phosphate buffer (pH 7.5). […] If not, a saturated amino acid solution is employed.

[3] = molecular target: T3, plasmin solution from swine blood (Sus scrofa, UniProt P06867); assay: Plasmin activity at high amino acid concentration and after dilution (reversible inactivation); type: biochemical
T3 construct: from tissue; host or cells: swine blood
T3 sequence (P06867 97-579 limits assumed): as the sequence (P06867 97-579 limits assumed) above
T3 sequence (P06867 580-809 limits assumed): as the sequence (P06867 580-809 limits assumed) above
Description: as §1
as §2, with “1 […] OF THE PLASMIN SOLUTION THE ACTIVITY OF WHICH IS TO BE DETERMINED AND THE PH of which is 7.5 is added to two test tubes each containing in 0.4 molar phosphate buffer (pH 7.50) 1 milliliter of a 3 per cent's solution of Hammarsten Casein said solution having been preheated to 35.5°C. […] By” for “By”
By way of illustration reference may be made to the following experiments:
a. A plasmin solution from swine blood and containing about 0.4 plasmin unit per milliliter and 2 millimoles of L-lysine per plasmin unit is produced in phosphate buffer (pH 7.5) whereafter the plasmin activity of the mixture is determined and compared with the activity of the plasmin solution without the amino acid addition and the activity of the mixture is expressed in per cent of the activity of the unmixed plasmin solution. Thereafter a dilution of the solution is carried out expressed in the original volume of the plasmin solution divided by the volume of the plasmin solution after the dilution, and the activity of the diluted solutions is determined.

plasmin [4] = molecular target: T2, plasmin; assay: Initial loss of plasmin on adjusting concentrated acidified solution to pH 7.5; type: biochemical; conditions: 10 plasmin units per ml adjusted to pH 7.5 at 25°C
Description: In the tests referred to above use has been made of plasmin solutions having a plasmin content of 0.3 and 0.4 units, respectively, per milliliter. When using more concentrated solutions, e.g. containing 10 plasmin units per milliliter, an appreciable initial loss of plasmin will occur immediately by the adjustment of the pH-value from 2-3 up to neutral reaction unless amino acids are present in sufficient amounts. Thus, in the course of a few minutes an initial loss of 20 per cent may e.g. arise when an acidified plasmin solution containing 10 plasmin units per milliliter is adjusted to pH 7.5 at 25°C even if lysine is present in the solution in an amount of 0.002 millimole per plasmin unit. Such initial loss can, however, be avoided by increasing the amino acid concentration.

[5] = system: partially purified plasmin from human plasma; conditions: cited from earlier work; for effect on autolysis of plasmin: neutral solutions, 37°C
plasmin [6] = molecular target: plasmin (Homo sapiens, UniProt P00747); conditions: plasmin about 0.047 to about 0.229 units per ml; cited from earlier work
[7] = Solubility of plasmin in neutral aqueous solution; type: physicochemical; conditions: no amino acid
Description: While a neutral solution of plasmin in water becomes turbid due to a precipitation of plasmin when the plasmin concentration is 0.01 unit and more per milliliter, it is possible by the addition of an amino acid to produce clear neutral plasmin solutions having a plasmin concentration up to 25 units per milliliter.

[8] = Stability of plasmin solutions without amino acid
Description: Further, it is possible to produce a sterile plasmin solution which is adjusted to pH 1 to 4. […] By mixing such solution before use with a sterile amino acid solution which has either been buffered with one of the normal acid-base-buffer systems or has a sufficient amino acid content, it is possible to obtain a neutral stable plasmin solution.

[9] = 0.010 millimole L-lysine per plasmin unit
[10] = 0.021 millimole L-lysine per plasmin unit
[11] = 0.042 millimole L-lysine per plasmin unit
[12] = pH 7.5, read-out: Activity expressed in per cent of the total activity

Molecule: CSCCC(N)C(=O)O (racemic) [DL-methionine]
stabilizing effect (in words) [1]: possible to obtain a stabilizing effect

Molecule: CN(CC(=O)O)C(=N)N [Creatine]
stabilizing effect (in words) [1]: considerably better than that of glycine and DL-valine

Molecule: NCC(=O)O [Glycine]
stabilizing effect (in words) [1]: rather insignificant; also recorded: faintly stabilizing effect

stabilizing effect (in words) [1]: strongly stabilizing effect
Molecule: NCC(=O)NCC(=O)O [Glycyl glycine] (H-Gly-Gly-OH)

Molecule: N=C(N)NCC(=O)O [Guanidino acetic acid]
stabilizing effect (in words) [1]: considerably better than that of glycine and DL-valine

stabilizing effect (in words) [1]: almost identical with that of glycine
Molecule: N[C@@H](CC(=O)O)C(=O)O [L(+)-aspartic acid]

Molecule: O=C(O)[C@@H]1C[C@@H](O)CN1 [L(-)-hydroxyproline]
stabilizing effect (in words) [1]: limited stabilizing effect

Molecule: O=C(O)[C@@H]1CCCN1 [L(-)-proline]
stabilizing effect (in words) [1]: limited stabilizing effect

Molecule: NCCCC[C@H](N)C(=O)O [L-lysine]
% activity after 120 min. at 25°C (plasmin [2]; 0.005 millimole L-lysine per plasmin unit, without lysine 70): 78%
% activity after 60 min. at 25°C (plasmin [2]; 0.005 millimole L-lysine per plasmin unit, without lysine 77): 88%
% activity after 60 min. at 25°C (plasmin [2]; [9]): 91%
% activity after 120 min. at 25°C (plasmin [2]; [9]): 84%
% activity after 60 min. at 25°C (plasmin [2]; [10]): 99%
% activity after 120 min. at 25°C (plasmin [2]; [10]): 91%
% activity after 60 min. at 25°C (plasmin [2]; [11]): 100%
% activity after 120 min. at 25°C (plasmin [2]; [11]): 99%
lysine concentration necessary to avoid a plasmin loss by standing for two hours (plasmin [2]; 25°C): 0.04 millimole per plasmin unit
lysine concentration sufficient to allow only a plasmin loss of about 20 per cent by standing for 2 hours (plasmin [2]; 25°C): about 0.005 millimole per plasmin unit
lysine concentration necessary to allow only a plasmin loss of about 20 per cent by standing for 2 hours (plasmin [2]; 35.5°C): about 0.1 millimole per plasmin unit
lysine concentration necessary to avoid a plasmin loss by standing for two hours (plasmin [2]; 35.5°C, plasmin concentration of 0.4 plasmin units per ml): above 0.25 millimole per plasmin unit
stabilizing effect (in words) [1]: strongly stabilizing effect
stabilizing effect (in words) ([1]; listed as lysine): most vigorous stabilizing effect
reversibility of the inactivation by dilution ([3]; Table IV): reversible
activity at 160000 µM [3, 12]: 97%
activity at 320000 µM [3, 12]: 100%
activity at 480000 µM [3, 12]: 92%
activity at 640000 µM [3, 12]: 84%
activity at 800000 µM [3, 12]: 88%
lysine concentration above which it has an inactivating effect on the plasmin solution ([3]; plasmin concentration 1/2 unit per millimole lysine): above 0.32 millimole per ml
initial loss of plasmin in the course of a few minutes (plasmin [4]; lysine 0.002 millimole per plasmin unit): 20 per cent
initial loss of plasmin (plasmin [4]; lysine 0.04 millimole per plasmin unit): avoid completely an initial loss

Molecule: CN [methylamine]
effect on autolysis of plasmin [5]: may inhibit this autolysis

Molecule: NC(N)=O [urea]
effect on autolysis of plasmin [5]: may inhibit this autolysis

stabilizing effect (in words) [1]: excellent stabilizing effect
Molecule: CC(=O)N[C@@H](CCCNC(=N)N)C(=O)O [α-N-acetyl-L-arginine]

Molecule: NCCCC(=O)O [γ-amino butyric acid]
stabilizing effect (in words) [1]: stabilize considerably better than β-alanine

stabilizing effect (in words) ([1]; listed as ε-amino caproic acids): strongly stabilizing effect
activity at 800000 µM ([3]; Undiluted, 0.8 millimole amino acid per ml, 2 millimoles per plasmin unit, about 0.4 unit per ml, pH 7.5, read-out: Activity expressed in per cent of the total activity): 57%
activity at 160000 µM ([3]; pH 7.5, Dilution 1:5, 0.16 millimole amino acid per ml, read-out: Activity expressed in per cent of the total activity): 93%
activity at 320000 µM ([3]; pH 7.5, Dilution 2:5, 0.32 millimole amino acid per ml, read-out: Activity expressed in per cent of the total activity): 84%
activity at 480000 µM ([3]; pH 7.5, Dilution 3:5, 0.48 millimole amino acid per ml, read-out: Activity expressed in per cent of the total activity): 71%
activity at 640000 µM ([3]; pH 7.5, Dilution 4:5, 0.64 millimole amino acid per ml, read-out: Activity expressed in per cent of the total activity): 65%
Molecule: NCCCCCC(=O)O [ε-amino caproic acid]
concentration at which it acts as an inhibitor of the action of plasmin (plasmin [6]): above 0.03 M
concentration at which it exhibits an enhancing effect on the action of plasmin (plasmin [6]): up to 0.02 M
stabilizing effect (in words) [1]: stabilize considerably better than β-alanine

B1: plasmin: proteolytic enzyme plasmin in aqueous solution without amino acid addition (protein, UniProt P00747 20-580; P00747 581-810, looked up)
Plasmin heavy chain A: EPLDDYVNTQGASLFSVTKKQLGAGSIEECAAKCEEDEEFTCRAFQYHSKEQQCVIMAENRKSSIIIRMRDVVLFEKKVYLSECKTGNGKNYRGTMSKTKNGITCQKWSSTSPHRPRFSPATHPSEGLEENYCRNPDNDPQGPWCYTTDPEKRYDYCDILECEEECMHCSGENYDGKISKTMSGLECQAWDSQSPHAHGYIPSKFPNKNLKKNYCRNPDRELRPWCFTTDPNKRWELCDIPRCTTPPPSSGPTYQCLKGTGENYRGNVAVTVSGHTCQHWSAQTPHTHNRTPENFPCKNLDENYCRNPDGKRAPWCHTTNSQVRWEYCKIPSCDSSPVSTEQLAPTAPPELTPVVQDCYHGDGQSYRGTSSTTTTGKKCQSWSSMTPHRHQKTPENYPNAGLTMNYCRNPDADKGPWCFTTDPSVRWEYCNLKKCSGTEASVVAPPPVVLLPDVETPSEEDCMFGNGKGYRGKRATTVTGTPCQDWAAQEPHRHSIFTPETNPRAGLEKNYCRNPDGDVGGPWCYTTNPRKLYDYCDVPQCAAPSFDCGKPQVEPKKCPGR
Plasmin light chain B: VVGGCVAHPHSWPWQVSLRTRFGMHFCGGTLISPEWVLTAAHCLEKSPRPSSYKVILGAHQEVNLEPHVQEIEVSRLFLEPTRKDIALLKLSSPAVITDKVIPACLPSPNYVVADRTECFITGWGETQGTFGAGLLKEAQLPVIENKVCNRYEFLNGRVQSTELCAGHLAGGTDSCQGDSGGPLVCFEKDKYILQGVTSWGLGCARPNKPGVYVRVSRFVTWIEGVMRNN
modifications: Plasmin
notes: proteolytic enzyme plasmin in aqueous solution without amino acid addition
plasmin concentration at which a neutral solution in water becomes turbid due to precipitation of plasmin [7]: ≥ 0.01 unit per milliliter
stability in neutral solutions ([5]; rapid loss of proteolytic activity at 37°C): unstable
plasmin concentration above which neutral solutions must be considered unstable ([8]; criterion: highest permissible loss 20 per cent in 2 hours at 25°C): more than 0.1 unit per milliliter
stability of acid sterile plasmin solution ([8]; pH 1 to 4, stored at 4°-5°C): stable for several months
stability of aqueous plasmin solution ([8]; pH-value of 2 to 3, temperatures up to 35°C): practically completely stable
